The results in this text go back to patent US20070111284A1, “Galactosylation of Recombinant Glycoproteins” (Genentech, Inc., priority 2000, published 2007).

In assay [1] the test system is CHO cells. The assay can be described thus: Intracellular nucleotides and nucleotide sugars (HPLC) in PALA resistant CHO cells. Format: cell-based, Chinese hamster. Conditions: FIG. 6. The protocol:
CHO cells were treated in 5 mM PALA, cell extracts were prepared and nucleotides measured using a method similar to Ryll and Wagner. Ryll and Wagner (1991) J. Chromatography, 570:77-88. The experiment was performed over a time course of 10 to 90 days and data quantified and plotted as UTP content of PALA resistant cells relative to control cells.
Further, PALA resistant CHO DP12 cells expressing TNFR-IgG were seeded at 4×10^6 cells per ml in spinner flask cultures and incubated at 31° C. and 6 mM butyrate for 6 days. The cell culture supernatant was harvested and TNFR-IgG recovered by a method of protein A immunoaffinity chromatography as is well known in the art. N-linked glycans were analyzed by MALDI mass spectrometry using the method generally described by Papac et al., (1996) Anal. Chem., 68:3215-3223. Sialic acid content of the TNFR-IgG was determined using were analyzed using the method generally described by Anumula, (1995) Anal. Biochem., 230, 24-30.

The test system of the next assay is CPS II. The assay can be described thus: CPS II activity in PALA resistant CHO cells. Format: cell-based, Chinese hamster. Conditions: CHO B cell line, selected with 3 mM PALA; FIG. 3. The protocol: CHO DP12 and CHO DG44 parental cell lines and CHO DP12 expressing TNFR-IgG and anti-CD11a were cultivated with and without P-phosphonacytyl-L-aspartate (PALA). As shown schematically in FIG. 2, each cell line was plated at 10% confluency in 10 cm petri dishes using standard tissue culture techniques. Cells were cultured in serum containing medium having 0.1 mM PALA. The culture medium was changed weekly. Surviving clones were pooled and sub-cultivated in increasing concentrations of PALA until the target PALA concentration was reached, i.e., 2-10 mM PALA. After selection for the PALA phenotype (see below), cells were either passed into a PALA containing medium or to a PALA free medium and further cultivated in suspension spinner flasks. Spinner flask cell populations were sub-cultivated every 4-7 days. Cells selected in the presence of PALA are referred to as PALA-resistant cells, cells cultivated in the same manner as above but not treated with PALA will be referred to as control cells.
CHO cells treated with 3 mM PALA were analyzed for CPS II activity, an indicator of overall CAD activity, using the method generally described in Mori and Tatibana. […] Two PALA resistant CHO sub-cultures were analyzed, CHO-A and CHO-B, to ensure that results were uniform to the PALA resistant phenotype and not particular to a sub-population of treated cells.

Another assay relates to CAD mRNA. The assay can be described thus: CAD mRNA expression by RNase protection assay in PALA selected cells. Format: cell-based. The conditions noted are these: TRY cells selected under 2 mM PALA; FIG. 4. The protocol: CAD expression was measured on PALA resistant cells using a RNase protection assay similar to the method described in Mahler and McGuire. Mahler and McGuire (1990), J. Clin. Invest., 86: 1641-1648. In particular, TRY cells were selected under 2 mM PALA and CAD mRNA expression measured using a RNase protection assay.

The test system of assay [2] is CHO cells. The assay can be described thus: Intracellular UTP and UDP-galactose in CHO cells fed uridine or galactose. Format: cell-based, Chinese hamster. The protocol:
CHO cells were incubated under standard tissue culture technique in the presence and absence of 1 to 20 mM uridine for 18 hours and tested for UTP concentrations using a method similar to Ryll and Wagner. Quantified data from the 0, 1, 2, 5, 10 and 20 mM uridine cultures were plotted as a function of normalized intracellular UTP concentrations. Alternatively, CHO Cells were cultured in the presence of 0.2 mM uridine or 11 mM galactose and tested for UTP concentrations using the method of Ryll and Wagner.

In assay [3] the test system is CHO cell line that produces aCD20. Briefly: Galactose content of aCD20 MAb from CHO cells cultured with uridine (capillary electrophoresis). Conditions: 0.5 to 1.0 mM uridine for 7 days; FIG. 10. The format is cell-based, Chinese hamster. The protocol: A CHO cell line that produces a recombinant glycoprotein, monoclonal antibody (MAb) aCD20, was cultured in the presence and absence of 0.5 to 1.0 mM uridine for a period of 7 days. Secreted aCD20 MAb was purified by immunoaffinity using the method of Ma & Nashabeh. Ma & Mashabeh (1999) Analytical Chemistry 71(22):5185-92. Purified aCD20 was tested for galactose content using the capillary electrophoresis method of Ma & Nashabeh and plotted as a percent galactose content.

Where [4] appears, read: 0.2 mM uridine or 11 mM galactose, FIG. 8.

For the molecule `O=C(O)C[C@H](NC(=O)CP(=O)(O)O)C(=O)O` [PALA, N-phosphonacetyl-L-aspartate], the “increase in UTP content as compared to control cells” value in the assay with CHO cells [1] (CHO cells treated in 5 mM PALA, time course of 10 to 90 days) is given as 200-350%. Besides, the “increase in UDP-galactose content as compared to control cells” value in the assay with CHO cells [1] (PALA resistant CHO cells, period of at least 90 days) is recorded as 200-350%. Also, the “increase in CPS II activity as compared to control CHO cells” value with CPS II is “twenty”. The “increase in CAD mRNA as compared to control cells” value with CAD mRNA was “two”.
`O=C[C@H](O)[C@@H](O)[C@@H](O)[C@H](O)CO` [galactose]: the “intracellular UTP levels” value in the assay on CHO cells [2] (setting [4]) is “does not increase UTP levels”. In addition, in the assay with CHO cells [2] (11 mM galactose, FIG. 8), the “intracellular UDP-galactose levels” value is given as “does increase UDP-galactose levels”.
Take `O=c1ccn([C@@H]2O[C@H](CO)[C@@H](O)[C@H]2O)c(=O)[nH]1` [uridine]: in assay [3], the “galactose content of aCD20 MAb versus non-uridine treated control cells” value is “much higher galactose content”. In addition, the “intracellular UTP levels” value with CHO cells [2] (setting [4]) is “dramatic increase in UTP levels”; with CHO cells [2] (1 to 20 mM uridine for 18 hours, FIG. 7), “increases UTP levels within the cell in a dose dependent manner”.
